Test results: the RepoRT retention time repository (doi:10.1186/gb-2013-14-6-r54)

assay: RP, Hichrom Alltima HP C18, 150 × 2.1 mm, 3 µm, 0.2 mL/min, estimated dead time 1.7 min; A: 90% water + 5% acetonitrile + 5% formic acid; B: acetonitrile; gradient (min/%B) 0/0 5/10 25/20 30/25 45/70 65/0; conditions: stereoisomer not certain

Row | LC retention time | SMILES
1 | 17.2 min | COc1cc(-c2[o+]c3cc(O)cc(O)c3cc2OC2OC(CO)C(O)C(O)C2O)ccc1O (configuration not stated) [peonidin-3-O-glucoside]
2 | 3.53 min | O=C(OC1OC(CO)C(O)C(O)C1O)c1cc(O)c(O)c(O)c1 (configuration not stated) [monogalloyl glucose]
3 | 15.8 min | NC(Cc1cn(C2OC(CO)C(O)C(O)C2O)c2ccccc12)C(=O)O (configuration not stated) [tryptophan-N-glucoside]
4 | 20 min | O=C(O)C1OC(Oc2c(-c3ccc(O)c(O)c3)oc3cc(O)cc(O)c3c2=O)C(O)C(O)C1O (configuration not stated) [quercetin glucuronide]
5 | 19.8 min | CC1OC(OC2C(=O)c3c(O)cc(O)cc3OC2c2ccc(O)c(O)c2)C(O)C(O)C1O (configuration not stated) [dihydroquercetin-O-deoxyhexoside (astilbin)]
6 | 3.04 min | O=C(O)CC(O)(CC(=O)O)C(=O)O [citric acid]
7 | 14.4 min | OCC1OC(Oc2cc3c(O)cc(O)cc3[o+]c2-c2ccc(O)c(O)c2)C(O)C(O)C1O (configuration not stated) [cyanidin-3-O-glucoside]
8 | 12.5 min | OCC1OC(Oc2cc3c(O)cc(O)cc3[o+]c2-c2cc(O)c(O)c(O)c2)C(O)C(O)C1O (configuration not stated) [delfinidin-3-O-glucoside]
9 | 2.72 min | O=C(O)CC(O)C(=O)O (configuration not stated) [malic acid]
10 | 27.6 min | O=C(C=Cc1ccc(O)cc1)OCC1OC(Oc2cc3c(O)cc(=O)cc-3oc2-c2ccc(O)c(O)c2)C(O)C(O)C1O (stereo not drawn) [cyanidin-(coumaroyl)-3-O glucoside, trans isomer]
11 | 2.52 min | O=C(O)C(O)C(O)C(=O)O (configuration not stated) [tartaric acid]
12 | 3.04 min | NC(CCC(=O)NC(CS)C(=O)NCC(=O)O)C(=O)O (configuration not stated) [glutathione]
13 | 18 min | COc1cc(-c2oc3cc(=O)cc(O)c-3cc2OC2OC(CO)C(O)C(O)C2O)cc(OC)c1O (configuration not stated) [malvidin-3-O-glucoside]
14 | 2.4 min | OCC1OC(O)C(O)C(O)C1O (configuration not stated) [hexose]
15 | 15.6 min | COc1cc(-c2[o+]c3cc(O)cc(O)c3cc2OC2OC(CO)C(O)C(O)C2O)cc(O)c1O (configuration not stated) [petunidin-3-O-glucoside]
16 | 2.37 min | O=C(O)C(O)C(O)C(O)C(O)CO (configuration not stated) [gluconic acid]
17 | 2.52 min | OCC1OC(OC2(CO)OC(CO)C(O)C2O)C(O)C(O)C1O (configuration not stated) [di-hexose (sucrose)]
